Assays:
Format in all cases: cell-based
[1] = target: adenosine A3 receptor (A3R) (Homo sapiens (Human), UniProt P0DMS8); test: Inhibition of adenosine A3 receptor cAMP signaling pathway (HTRF cAMP, CHO-K1/A3R cells); settings: Table 2; for IC50: CHO-K1/A3R cells, forskolin 10 μM, 2Cl-IB-MECA 5 nM, cAMP HTRF
From the text: Test Example 1. Determination of the inhibition activity of the compounds of the present invention on the adenosine A2a receptor (A2aR) cAMP signaling pathway, the adenosine A2b receptor (A2bR) cAMP signaling pathway, the adenosine A1 receptor (A1R) cAMP signaling pathway and the adenosine A3 receptor (A3R) cAMP signaling pathway.
The inhibition activity of the compounds of the present invention on the adenosine A2a receptor cAMP signaling pathway, the adenosine A2b receptor cAMP signaling pathway, the adenosine A1 receptor cAMP signaling pathway and the adenosine A3 receptor cAMP signaling pathway was determined by the following method. The experimental method is briefly described as follows:
2.3 Adenosine A3 receptor
CHO-K1/A3R cells were cultured in DMEM/F12 medium containing 10% fetal bovine serum and 10 μg/ml puromycin. The cells were digested with the cell separation buffer during the experiment. The cells were resuspended in the balanced salt buffer containing 20 mM HEPES and 0.1% bovine serum albumin and counted, and the cell density was adjusted to 5×10^5 cells/ml. In the 384-well plate, each well was added with 12.5 μl of cell suspension, and 6.25 μl of test compound (4× concentration) formulated with the balanced salt buffer containing 20 mM HEPES, 0.1% bovine serum albumin, 54 μM rolipram and 2.7 U/ml adenosine deaminase, and the plate was incubated at room temperature for 30 minutes. Each well was then added with 6.25 μl of forskolin and 2Cl-IB-MECA (4× concentration) formulated with the balanced salt buffer containing 20 mM HEPES, 0.1% bovine serum albumin, 54 μM rolipram and 2.7 U/ml adenosine deaminase, and the plate was incubated at room temperature for 30 minutes. The final concentrations of the compounds were: 100000, 10000, 1000, 100, 10, 1, 0.1 and 0 nM. The final concentration of forskolin was 10 μM. The final concentration of 2Cl-IB-MECA was 5 nM. Intracellular cAMP concentration was detected with the cAMP dynamic 2 kit. cAMP-d2 and Anti-cAMP-Eu-Cryptate were diluted respectively with the cAMP lysis buffer at a ratio of 1:4. Each well was added with 12.5 μl of diluted cAMP-d2, followed by addition of 12.5 μl of diluted Anti-cAMP-Eu-Cryptate, and the plate was incubated at room temperature in the dark for 1 hour. The HTRF signal values were read by the PHERAstar multi-function microplate reader.

[2] = target: adenosine A2b receptor (A2bR) (Homo sapiens (Human), UniProt P29275); test: Inhibition of adenosine A2b receptor cAMP signaling pathway (HTRF cAMP, CHO-K1/A2bR cells); settings: Table 3; for IC50: CHO-K1/A2bR cells, ethyl carbazole 1 μM, cAMP HTRF
Method in brief: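 CHO-K1 cells expressing human A2bR were preincubated with compound (0-100000 nM final) for 30 min at room temperature in HEPES/BSA buffer with rolipram and adenosine deaminase. They were then stimulated with 1 μM […] for 30 min. Intracellular cAMP was measured by HTRF after 1 h detection.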

[3] = target: adenosine A2a receptor (A2aR) (Homo sapiens (Human), UniProt P29274); test: Inhibition of adenosine A2a receptor cAMP signaling pathway (HTRF cAMP, CHO-K1/A2aR cells)
Method in brief: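 CHO-K1 cells expressing human A2aR, preincubated 30 min at room temperature with compound (10000–0.001024 nM final) in HEPES/BSA buffer with rolipram and adenosine deaminase, then stimulated 30 min with […] (20 nM final). Intracellular cAMP read by HTRF after 1 h lysis/detection.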

adenosine A2b receptor (A2bR), sequence (P29275 whole entry): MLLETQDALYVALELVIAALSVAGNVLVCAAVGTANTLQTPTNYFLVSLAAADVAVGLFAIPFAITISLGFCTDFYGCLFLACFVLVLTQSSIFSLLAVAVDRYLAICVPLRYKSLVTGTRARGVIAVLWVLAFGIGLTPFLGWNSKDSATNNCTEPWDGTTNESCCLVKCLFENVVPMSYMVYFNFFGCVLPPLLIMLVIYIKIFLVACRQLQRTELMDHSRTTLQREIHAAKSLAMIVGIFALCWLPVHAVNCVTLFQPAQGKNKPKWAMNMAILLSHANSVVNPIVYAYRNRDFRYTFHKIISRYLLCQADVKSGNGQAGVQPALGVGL
adenosine A3 receptor (A3R), sequence (P0DMS8 whole entry): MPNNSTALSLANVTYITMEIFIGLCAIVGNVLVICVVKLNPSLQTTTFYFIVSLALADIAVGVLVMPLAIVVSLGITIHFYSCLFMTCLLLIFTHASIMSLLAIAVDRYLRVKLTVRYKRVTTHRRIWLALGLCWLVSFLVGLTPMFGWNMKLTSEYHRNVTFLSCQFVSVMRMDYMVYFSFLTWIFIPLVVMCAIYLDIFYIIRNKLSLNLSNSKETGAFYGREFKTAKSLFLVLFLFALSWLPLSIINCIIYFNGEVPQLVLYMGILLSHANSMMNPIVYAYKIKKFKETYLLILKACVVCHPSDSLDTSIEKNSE
adenosine A2a receptor (A2aR), sequence (P29274 whole entry): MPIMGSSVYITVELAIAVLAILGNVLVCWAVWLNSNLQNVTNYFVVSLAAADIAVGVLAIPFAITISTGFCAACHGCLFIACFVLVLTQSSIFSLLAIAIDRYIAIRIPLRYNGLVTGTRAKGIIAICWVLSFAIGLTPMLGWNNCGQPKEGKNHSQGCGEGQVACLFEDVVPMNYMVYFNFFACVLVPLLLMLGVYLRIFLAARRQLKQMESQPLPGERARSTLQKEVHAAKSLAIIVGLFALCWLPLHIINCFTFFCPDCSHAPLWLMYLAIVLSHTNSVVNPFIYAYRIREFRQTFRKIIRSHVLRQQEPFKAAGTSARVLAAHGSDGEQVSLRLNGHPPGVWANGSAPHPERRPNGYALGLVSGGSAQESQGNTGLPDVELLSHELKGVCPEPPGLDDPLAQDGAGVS

IC50 ratio (A3R/A2aR) [1]	IC50 [1]	IC50 [2]	IC50 ([3]; Table 1, ethyl carbazole 20 nM)	IC50 ([3]; Table 2, ethyl carbazole 20 nM)	IC50 ([3]; Table 3, ethyl carbazole 20 nM)	IC50 ratio (A2bR/A2aR) ([2]; selectivity A2bR over A2aR)	Compound
>2.5 × 10^3	> 10000 nM	793 nM	3.96 nM	3.96 nM	0.75 nM	–	Cc1cc(-c2c(-c3ccc(F)cc3F)nc(N)n3cnnc23)cc(C(F)(F)F)n1 [Example 18, 7-(2,4-Difluorophenyl)-8-(2-methyl-6-(trifluoromethyl)pyridin-4-yl)-[1,2,4]triazolo[4,3-c]pyrimidin-5-amine]
>4.3 × 10^3	> 10000 nM	522 nM	2.33 nM	2.33 nM	2.33 nM	224	Cc1cc(-c2c(-c3ccc(F)cc3F)nc(N)n3cnnc23)cc(C(F)F)n1 [Example 20, 8-(2-(Difluoromethyl)-6-methylpyridin-4-yl)-7-(2,4-difluorophenyl)-[1,2,4]triazolo[4,3-c]pyrimidin-5-amine]
